What was measured:
Assay type in all cases: in vivo, mice
[1] = tested on: doxorubicin-induced cardiotoxicity; experiment: Heart weight in doxorubicin-induced cardiotoxicity model; details: 5 days after DOX; for heart weight (effect of treatment): DOX 20 mg/kg mice, compound 180 mg/kg, vs DOX vehicle mice
Method: (§1) Cardiotoxicity was induced by a single intraperitoneal injection of doxorubicin (DOX) at 20 mg/kg. Doxorubicin was prepared at 2 mg/mL and volume of administration was 10 mL/Kg.
(§2) • Group 1: Vehicle (i.p.) • Group 2: Doxorubicin (20 mg/kg) • Group 3: Doxorubicin (20 mg/kg)+compound 001 180 mg/kg • Group 4: Doxorubicin (20 mg/kg)+compound 010 180 mg/kg • Group 5: Doxorubicin (20 mg/kg)+compound 011 180 mg/kg Group Repartition:
(§3) The treatment with compounds 001, 010 and 011 was initiated from 5 days before DOX injection once per day from […] to D0.
(§4) Mice were i.p treated with compounds 001, 010 and 01130 min before DOX injection.
(§5) Mice were i.p treated with compounds 001,010 and 011 for the duration of the experiment (D0 to D5) once per day. Last injection occurred 24 hours before sacrifice.
At D5, heart and tibia were collected.

[2] = tested on: doxorubicin-induced cardiotoxicity; experiment: Survival rate in doxorubicin-induced cardiotoxicity model; details: for survival rate (% of survival): DOX 20 mg/kg i.p. mice, compound 180 mg/kg i.p. once daily from 5 days before DOX to D5, 5 days after DOX
Method: The aim of the present study was to evaluate, the effects of i.p. administration of compounds 001, 010 and 011 at 180 mg/kg in the progression of a cardiotoxicity induced by doxorubicin.
as §1
Mortality rate was followed-up all along the experimental phase.
as §2
At D0, mice received DOX (20 mg/kg) by intraperitoneal route.
as §3, §4, §5
The survival rate was recorded every day until the end of the experiment (D5).

[3] = tested on: doxorubicin-induced cardiotoxicity; experiment: Body weight in doxorubicin-induced cardiotoxicity model; details: for body weight loss observed after doxorubicin administration (effect of treatment): DOX 20 mg/kg i.p. mice, compound 180 mg/kg i.p. daily, D5 vs before injection, vs DOX vehicle
Method: The treatment with compounds 001, 010 and 011 was initiated from 5 days before DOX injection once per day from D5 to D0.
The bodyweight was assessed at inclusion and at D5.

[4] = tested on: doxorubicin-induced cardiotoxicity; experiment: Assessment of cardiac function by echocardiography in doxorubicin-induced cardiotoxicity model; details: 5 days after DOX; for heart rate (effect of treatment, in words): vs DOX vehicle; for end-systolic LV volume (effect of treatment): vs doxorubicin vehicle group; for anterior and posterior wall thickness in systole (effect of treatment): compound 180 mg/kg
Method: Cardiotoxicity was induced by a single intraperitoneal injection of doxorubicin (DOX) at 20 mg/kg. Doxorubicin was prepared at 2 mg/mL and volume of administration was 10 mL/Kg. • Group 1: Vehicle (i.p.) • Group 2: […] Doxorubicin (20 mg/kg)+compound 001 180 mg/kg • Group 4: Doxorubicin (20 mg/kg)+compound 010 180 mg/kg • Group 5: Doxorubicin (20 mg/kg)+compound 011 180 mg/kg Group Repartition: […] Mice were i.p treated with compounds 001, 010 and 01130 min before DOX injection. Mice were i.p treated with compounds 001,010 and 011 for the duration of the experiment (D0 to D5) once per day. Last injection occurred 24 hours before sacrifice. Echocardiography (ECG) was performed 5 days after doxorubicin injection in anesthetized (isoflurane 1.5-2%) animals with non-invasive two-dimensional echocardiography (VF16-5 probe, Siemens, Acuson NX3 Elite). After removing hairs on the chest, numeric images of the heart will be obtained in both parasternal long-axis and short axis views. The following cardiac function were assessed during ECG: • Left ventricle (LV) end-systolic and end-diastolic inner diameter, • LV end-systolic and end-diastolic volume, • Fractional shortening; • Ejection fraction; • Heart Rate; and • Anterior and posterior wall thickness in Diastole and in systole.

[5] = tested on: doxorubicin-induced cardiotoxicity; experiment: Plasmatic LDH biomarker in doxorubicin-induced cardiotoxicity model; details: plasma, 5 days after DOX
Method: as §1, §2, §3, §4, §5
Retro-orbital blood collection was performed at the inclusion and at 1 and 5 days after the induction with DOX to assess biomarkers (especially LDH).
DOX mice were treated with compounds 001,010 and 011 (180 mg/kg) or vehicle. Plasmatic LDH (lactate dehydrogenase) was measured 5 days after doxorubicin injection.

[6] = DOX 20 mg/kg mice, compound 180 mg/kg i.p. daily
[7] = doxorubicin 20 mg/kg + vehicle vs control group
[8] = doxorubicin-treated mice (20 mg/kg, vehicle) vs control

Row | Compound | heart weight (effect of treatment) [1] | survival rate (% of survival) [2] | body weight loss observed after doxorubicin administration (effect of treatment) [3] | ejection fraction [4, 6] | fractional shortening [4, 6] | heart rate (effect of treatment, in words) [4, 6] | end-systolic LV volume (effect of treatment) [4, 6] | anterior and posterior wall thickness in systole (effect of treatment) ([4]; DOX 20 mg/kg mice) | other results
1 | NC(=O)c1ccc[n+]([C@H]2O[C@H](COP(=O)([O-])OP(=O)([O-])OC[C@H]3O[C@H]([n+]4cccc(C(N)=O)c4)[C@H](O)[C@@H]3O)[C@@H](O)[C@H]2O)c1 [Compound 011] | tended to increase | 100% | significantly decreased | 58.2±0.5% | around 38% | increased | reduced | non-significant increases | 
2 | COc1cccc2c1C(=O)c1c(O)c3c(c(O)c1C2=O)C[C@@](O)(C(=O)CO)C[C@@H]3O[C@H]1C[C@H](N)[C@H](O)[C@H](C)O1 [doxorubicin, reference compound] |  |  |  |  |  |  |  |  | heart weight ([1]; doxorubicin 20 mg/kg + vehicle): 102.3 ± 4.6 mg; mice died before the end of experimental protocol ([2]; doxorubicin 20 mg/kg i.p. mice treated with vehicle, up to D5): ~50%; decrease in body weight (body weight gain) ([3]; doxorubicin 20 mg/kg i.p., surviving vehicle-treated mice, day of sacrifice minus before injection): -4.2 ± 0.5 g; increase in LDH release compared to control group ([5]; doxorubicin 20 mg/kg + vehicle): more than 3 fold; end-diastolic LV volume [4, 7]: without significative difference; end-systolic LV volume [4, 7]: significant increase; anterior and posterior wall thickness in systole ([4]; doxorubicin 20 mg/kg + vehicle vs control): significantly decreased; heart rate ([4]; doxorubicin 20 mg/kg + vehicle): 365.1±23.9 bpm; ejection fraction ([4]; doxorubicin 20 mg/kg vehicle group): 38.9±1.3%; LV internal diameter in diastole [4, 8]: without significative difference; LV internal diameter in systole [4, 8]: significantly increased; fractional shortening ([4]; doxorubicin-treated mice (20 mg/kg, vehicle)): 33.5±0.4%
3 | NC(=O)c1ccc[n+]([C@@H]2O[C@H](COP(=O)([O-])O)[C@@H](O)[C@H]2O)c1 [Compound 001, nicotinamide mononucleotide] |  | 78% | significantly decreased | 56.9±0.6% | around 38% | increased | reduced | non-significant increases | decrease of LDH release / reduction in LDH levels ([5]; DOX 20 mg/kg mice, compound 180 mg/kg, vs DOX vehicle): more than 35%
4 | NC(=O)c1ccc[n+]([C@@H]2O[C@H](COP(=O)([O-])OP(=O)([O-])OC[C@H]3O[C@H]([n+]4cccc(C(N)=O)c4)[C@H](O)[C@@H]3O)[C@@H](O)[C@H]2O)c1 [Compound 010] | tended to increase | 98% | significantly decreased | 60.0±0.6% | around 38% | increased | reduced | non-significant increases | heart rate [4, 6]: 470.1±18.8 bpm
